Experiments:
Pshp3 luxAB reporter = experiment: Luciferase reporter assay, Pshp3-luxAB, with synthetic peptides; format: cell-based, Streptococcus pyogenes NZ131; details: for Induction of luciferase activity at Pshp3 / Induction of luciferase at Pshp3 in wild-type bacteria: 50 nM peptide in CDM; for Induction of luciferase activity at Pshp3: crude peptide (31-50% pure), DMSO vehicle control, representative of at least three experiments; for Induction of luciferase at Pshp3 in wild-type bacteria: wild-type reporter strain JCC174 (mutated shp3 start codon); for Response at Pshp3 in Δrgg2 strain: Δrgg2 reporter strain JCC175
Description: (§1) Figure 3 SHP stimulation of luciferase production. For panels A and C, overnight GAS cultures were diluted into CDM and followed for growth and light production over time. For panels B and D-H, reporter strains were grown to log-phase (OD600 between 0.3 and 0.5) and then diluted 13-fold into conditioned (panel B) or fresh CDM containing 50 nM of the indicated peptide (panels D-H). For all synthetic peptide experiments, DMSO was included as a vehicle control. Data shown are representative of at least three independent experiments. (A) Expression of shp3 under its own promoter from a multi-copy plasmid (pSHP3) induces luciferase expression at both Pshp2 (triangles) and Pshp3 (squares); pLZ12-Sp is the vector-only control. (B) Luciferase-inducing activity is present in a cell-free culture supernatant prepared from mid-log phase Δrgg3 donor (JCC131) but not in wild-type (NZ131) or Δrgg3-shp3 (JCC132)-conditioned supernatants; Δrgg3-shp3 (JCC159) was used as the reporter strain, and fresh medium was included as a control. (C) Luciferase activity of a Δrgg3-shp3 strain (JCC168) expressing truncated versions of shp3 indicates the importance of the C-terminus. All truncation plasmids were derived from pSHP3; pSHP3_17-23 includes a methionine to initiate translation. (D) Synthetic full-length (sSHP3) and C-terminal eight amino acids (sSHP3-C8), but not reverse peptide (sSHP3-rev), induce luciferase activity in a Δrgg3-shp3 reporter strain (JCC168). (E) Amino acid substitutions within the C-terminus of SHP3 alter its reporter-inducing activity in a Δrgg3-shp3 reporter strain (JCC168). sSHP3-C8: DIIIIVGG; the sequences of synthetic peptides with amino acids substitutions are shown in the panel legend. […] Reverse peptide (sSHP2-C8-rev) was included as a control. (G) sSHP3-C8 induces a sustained response from the Pshp2 reporter in the wild-type strain (BNL148), while luciferase activity of a Δrgg3-shp3 strain (BNL150) wanes. (H) Synthetic C8 peptides stimulate modest luciferase activity in Δrgg2 strains with integrated Pshp2 (solid lines; BNL152) or Pshp3 (dotted lines; JCC175) reporters.
(§2) For luciferase assays, isolated colonies from the strains of interest were picked from a freshly streaked plate, inoculated into THY broth and grown overnight at 30°C. In the morning, cells were diluted 100-fold into CDM and incubated at 37°C. At each time point, 50 µL of each culture was removed to an opaque 96-well plate, samples were exposed to decyl aldehyde (Sigma) fumes for one minute, and counts per second (CPS) were quantified using a Wallac 1450 microbeta scintillation counter; the optical density (OD) at 600 nm was also measured at each time point. Relative light units (RLU) were calculated by normalizing CPS to OD. For the conditioned media experiment, strains of interest were grown in CDM to an OD of 0.3 to 0.5, cells were spun down, and supernatants were passed through a 0.22 µm filter; log-phase Δrgg3-shp3 reporter cells (JCC159) were diluted 1∶12 into conditioned supernatants, and light activity and OD were monitored as described above. For experiments with synthetic peptides, reporter strains were grown to an OD of 0.3 to 0.5 and then diluted into fresh CDM containing the peptide of interest, and light activity and OD were monitored as described above.
Synthetic peptides were purchased from Neo-Peptide (Cambridge, MA). Purities of crude preparations used in luciferase assays ranged from 31% to 50%. 95% pure preparations were used for electrophoretic mobility shift assays (EMSA) as described below. All peptides were reconstituted as 2 mM stocks in DMSO and stored in aliquots at -80°C. Subsequent dilutions for working stocks (50 µM) were made in DMSO and stored at −20°C.

[1] = system: Rgg3 (Streptococcus pyogenes NZ131 (serotype M49)); experiment: EMSA; details: 20 mM HEPES pH 7.9, 100 mM KCl, 12.5 mM MgCl2, 0.2 mM EDTA, 0.5 mM DTT, 0.5 mM CaCl2, 50 ug/mL salmon sperm DNA, 0.001 U/uL poly(dI-dC), 100 ug/mL BSA, 12% …
[2] = system: GAS NZ131 biofilm biomass; experiment: Biofilm assay, crystal violet staining; format: cell-based, Streptococcus pyogenes NZ131; details: 50 nM peptide
Description: Figure 6 Influence of Rgg regulators on biofilm production. SHPs can enhance biofilm biogenesis via the Rgg2/3 regulatory circuit and counter biofilm disassembly promoted by RopB. Crystal violet staining was performed to measure biofilm biomass of NZ131 derivatives grown 48 hours in 24-well polystyrene plates with (dark gray bars) or without (light gray bars) the addition of 50 nM sSHP3-C8. Levels of biofilm production were normalized to that of untreated NZ131 (wild type). Error bars indicate standard error from a minimum of three independent experiments.
Assays were performed as described by Manetti et al, with slight modifications. Briefly, each strain was grown overnight in THY at 30°C, diluted 1∶10 into fresh CDM, and 0.5 mL volumes were aliquoted to three separate wells of a 24-well polystyrene plate. When indicated, synthetic peptide was added to a final concentration of 50 nM. Plates where incubated at 37°C with 5% CO2 for 24 hours, then wells were washed with PBS and fresh CDM (containing peptide, if appropriate) was added. After an additional 24 hours of growth, each well was washed three times with PBS and stained with 0.2% crystal violet for 10 min. Excess crystal violet was aspirated off, and biofilms were washed three times with PBS. The biomass was then suspended in 1% SDS, and the absorbance at 540 nm was measured. Each strain was tested a minimum of three independent times on separate days, and each trial included NZ131 as the reference strain.

Rgg3-Pshp3 DNA complex = experiment: EMSA, effect of peptide on Rgg3 binding to Pshp3 probe; design: species or system Streptococcus pyogenes NZ131; details: 2 µM pure (>95%) peptide added 20 min after 10 nM FAM probe; room temperature; native PAGE
Description: (§3) The NZ131 rgg3 gene (Spy 49_0449c) was amplified using gene-specific primers (rgg3_fwd_NdeI/rgg3_rev_BamHI) and cloned into a modified pET expression vector bearing N-terminal His-6 and SUMO tags; the resulting vector, pCA102, was electroporated into E. coli C41(DE3) before each purification. Expression of His6-sumo-rgg3 was induced at an OD600 of 0.8 with 0.5 mM IPTG for six hours at 30°C. Cells were pelleted and suspended in Buffer A (20 mM sodium phosphate buffer, pH 7.5; 1.5 mM MgCl2, 280 mM NaCl, 20 mM imidazole, 10 mM β-mercaptoethanol) with 0.1 mg mL^−1 lysozyme, 0.01 mg mL^−1 DNaseI (Sigma) and Complete EDTA-free protease inhibitor (Roche). Cells were disrupted by sonication on ice, and cellular debris was removed by centrifugation at 45,000 x g for 20 min at 4°C. His6-SUMO-Rgg3 was adsorbed to a HisTrap-HP Nickel column (GE Biosciences), then washed with 50 mM imidazole and eluted with 300 mM imidazole. The eluate was immediately exchanged into fresh Buffer A using a Zeba spin desalting column, 7K MWCO (Thermo Scientific). […]
(§4) All DNA fragments for EMSAs were amplified from chromosomal NZ131 DNA by PCR using primers described in Table S1, with select primers containing 5′-FAM fluorescent tags (Integrated DNA Technologies). […] All gel shifts were detected by fluorescence imaging using a Typhoon PhosphorImager (GE Life Sciences).

Rgg3-Pshp2 DNA complex = experiment: EMSA, effect of peptide on Rgg3 binding to Pshp2 probe; design: species or system Streptococcus pyogenes NZ131; details: 2 µM pure (>95%) peptide added 20 min after 10 nM FAM probe; room temperature; native PAGE
Description: as §3, §4

Pshp2 luxAB reporter = experiment: Luciferase reporter assay, Pshp2-luxAB, with synthetic peptides; format: cell-based, Streptococcus pyogenes NZ131; details: for Induction of luciferase at Pshp2 in wild-type bacteria: wild-type reporter strain BNL148, 50 nM peptide in CDM; for Maximal induction at Pshp2 in Δrgg2 strain: Δrgg2 reporter strain BNL152
Description: as §1, §2
Synthetic peptides were purchased from Neo-Peptide (Cambridge, MA). Purities of crude preparations used in luciferase assays ranged from 31% to 50%. […]

[3] = Δrgg3-shp3 reporter strain JCC168

## EIIIIVGG [sSHP3-C8 with aspartic acid substituted by glutamate]
Pshp3 luxAB reporter; [3]
  Induction of luciferase activity at Pshp3: retained full activity

## Pshp3 probe
[1]
  K half: 100 nM

## DIIIIVG- [sSHP3-C8 without the C-terminal glycine]
Pshp3 luxAB reporter; [3]
  Induction of luciferase activity at Pshp3: significantly decreased light activity

## DIIIIVGG [sSHP3-C8, synthetic peptide containing the C-terminal eight amino acids of SHP3 (DIIIIVGG)]
Pshp3 luxAB reporter
  Induction of luciferase at Pshp3 in wild-type bacteria: stimulate induction and cross-induction
Pshp3 luxAB reporter; ΔoppD reporter strain JCC163, 50 nM peptide, response restored by pOppD
  Response of Pshp3 reporter in ΔoppD mutant: fails to respond
Pshp3 luxAB reporter; 50 nM peptide
  Response at Pshp3 in Δrgg2 strain: no response
Pshp3 luxAB reporter; [3]
  Induction of luciferase activity at Pshp3: Luciferase induction was also observed
Pshp3 luxAB reporter; Δrgg3-shp3 reporter strain JCC168, Pshp3, 50 nM peptide
  Reporter induction relative to sSHP3 at identical molar concentrations: more than 10 fold
[2]; 48 hours in CDM, 24-well polystyrene plates, normalized to untreated NZ131, minimum of three experiments
  Biofilm formation, wild-type NZ131: two-fold increase
[2]; ΔoppD (JCC135), 48 hours, crystal violet
  Biofilm production, ΔoppD mutant: could not stimulate biofilms
[2]; Δrgg2 (JCC137), 48 hours, crystal violet
  Biofilm production, Δrgg2 mutant: could not stimulate biofilms
[2]; Δrgg3 (JCC131), 48 hours, crystal violet
  Biofilm production, Δrgg3 mutant: did not further enhance biofilms
[2]; Δrgg3-shp3 (JCC132), 48 hours, crystal violet
  Biofilm production, Δrgg3-shp3 mutant: partially complemented
[2]; ΔropB (BNL146), 48 hours, crystal violet
  Biofilm biomass, ΔropB strain: increased six-fold
Rgg3-Pshp3 DNA complex
  Disruption of Rgg3 binding to Pshp3 DNA: Rgg3-DNA complexes were disrupted
Rgg3-Pshp2 DNA complex
  Disruption of Rgg3 binding to Pshp2 DNA: Rgg3-DNA complexes were disrupted
Pshp2 luxAB reporter
  Induction of luciferase at Pshp2 in wild-type bacteria: stimulate induction and cross-induction
Pshp2 luxAB reporter; 50 nM peptide
  Maximal induction at Pshp2 in Δrgg2 strain: ~40 fold
Pshp2 luxAB reporter; Δrgg3-shp3 reporter strain BNL150, 50 nM peptide, compared with wild type BNL148
  Luciferase activity at Pshp2 over time in Δrgg3-shp3 strain: wanes

## -IIIIVGG [sSHP3-C8 without the N-terminal aspartic acid]
Pshp3 luxAB reporter; [3]
  Induction of luciferase activity at Pshp3: complete loss of luciferase activity

## sSHP2-C8: synthetic C-terminal eight amino acids of SHP2 (DILIIVGG)
Pshp3 luxAB reporter
  Induction of luciferase at Pshp3 in wild-type bacteria: stimulate induction and cross-induction
Pshp3 luxAB reporter; 50 nM peptide
  Response at Pshp3 in Δrgg2 strain: no response
Rgg3-Pshp3 DNA complex
  Disruption of Rgg3 binding to Pshp3 DNA: only induced a small amount of disruption
Rgg3-Pshp2 DNA complex
  Disruption of Rgg3 binding to Pshp2 DNA: only induced a small amount of disruption
Pshp2 luxAB reporter
  Induction of luciferase at Pshp2 in wild-type bacteria: stimulate induction and cross-induction
Pshp2 luxAB reporter; 50 nM peptide
  Maximal induction at Pshp2 in Δrgg2 strain: 7 fold

## NIIIIVGG [sSHP3-C8 with aspartic acid replaced by asparagine]
Pshp3 luxAB reporter; [3]
  Induction of luciferase activity at Pshp3: decreased activity

## Pshp2 probe
[1]
  K half: 100 nM

Source: article PMC3150281, “Two Group A Streptococcal Peptide Pheromones Act through Opposing Rgg Regulators to Control Biofilm Development” (PLoS Pathogens, 2011)
